Source: patent US9249147B2, “Tyrosine kinase inhibitors” (CHEMBRIDGE CORPORATION, priority 2008, dated 2016)

Key:
Type in all cases: biochemical
IRK = molecular target: T1, IRK (Homo sapiens, UniProt P06213); test: IRK (insulin receptor kinase) assay; details: Table 1; read-out: IRK IC50
T1 construct: 6×His- or GST-tagged kinase domain fragments of the corresponding RTKs expressed in baculovirus system; host or cells: baculovirus system
Protocol: (§1) To determine inhibition of several tyrosine kinases, such as IGF1R, InsR, Alk, TrkA and Jak2, kinase assays are conducted using either Kinase-Glo (Promega) or AlphaScreen (PerkinElmer) kinase assay platforms. The Kinase-Glo Luminescent Kinase Assay is a homogeneous method for measuring kinase activity by determining the amount of ATP remaining after a kinase reaction. The luminescent signal is proportional to the amount of ATP and inversely proportional to the amount of kinase activity. Tyrosine kinase PT66 AlphaScreen Assay is a high-sensitivity homogeneous, anti-phosphotyrosine antibody-mediated luminescent proximity method measuring incorporation of phosphate in synthetic poly(Glu-Tyr) substrate. The kinase preparations used consist of purified recombinant, 6×His- or GST-tagged kinase domain fragments of the corresponding RTKs expressed in baculovirus system.
(§2) Compounds with a range of concentrations 40 μM, 20 μM, 10 μM, 5 μM, 2.5 μM, 1.25 μM, 0.625 μM, 0.3125 μM, 0.15625 μM and 0.078125 μM were incubated with NPM-ALK, which was produced in insect cells as a 6×HIS-tagged fusion protein and purified using nickel-charged resin chromatography, for 30 minutes at RT in the presence of 10 μM ATP and 7.0 ng biotinylated poly-GT. A 1:1 mixture of […] and donor beads was then added to the reaction and incubated for an additional 60 minutes at RT. The assay was conducted on a MultiPROBE liquid handling workstation (PerkinElmer) in a 384-well plate format with a total reaction volume of 40 μL per well. Working stocks of all compounds were dissolved in 100% DMSO and serial dilutions of the compounds were performed using kinase buffer (50 mM Tris-HCl (pH 7.5), 5 mM MgCl2, 5 mM MnCl2, 2 mM DTT (added freshly before use), 0.01% Tween-20) containing 5% DMSO. […] Data were collected as optical readings at 520-680 nm on a Fusion™ microplate analyzer (PerkinElmer), and IC50 and Ki values calculated using PRISM3.0 software (GraphPad Software, Inc., San Diego, Calif.). The same assay was also used with minor modifications to assess the IC50 and Ki values for selected compounds against five other tyrosine kinases (IRK, IGF1R, Flt3, Abl, Src), all of which were purchased from commercial vendors. PolyGT-Biotin was bought from CIS Biointernational Cat. #61GT0BLD; ATP—from Sigma Cat. # A7699; sodium orthovanadate—from Sigma Cat. #S-6508; phosphotyrosine (PT66) assay kit from PerkinElmer Cat. #6760602M; automated workstation tips (20 μL): PerkinElmer Cat. #6000657; and OptiPlate-384 (white)—from PerkinElmer Cat. #6007299.

ALK = ALK (Homo sapiens, UniProt Q9UM73); test: ALK kinase assay (Kinase-Glo / AlphaScreen, purified NPM-ALK); parameters: fused to the complete intracytoplasmic portion of ALK containing the functional tyrosine kinase domain; 6xHis; made in house; host or cells: insect cells; the other entry of the earlier key: NPM1 (P06748, Nucleophosmin); details: Table 1; read-out: ALK IC50
Sequence of ALK (Q9UM73 with tags, fused parts or gaps): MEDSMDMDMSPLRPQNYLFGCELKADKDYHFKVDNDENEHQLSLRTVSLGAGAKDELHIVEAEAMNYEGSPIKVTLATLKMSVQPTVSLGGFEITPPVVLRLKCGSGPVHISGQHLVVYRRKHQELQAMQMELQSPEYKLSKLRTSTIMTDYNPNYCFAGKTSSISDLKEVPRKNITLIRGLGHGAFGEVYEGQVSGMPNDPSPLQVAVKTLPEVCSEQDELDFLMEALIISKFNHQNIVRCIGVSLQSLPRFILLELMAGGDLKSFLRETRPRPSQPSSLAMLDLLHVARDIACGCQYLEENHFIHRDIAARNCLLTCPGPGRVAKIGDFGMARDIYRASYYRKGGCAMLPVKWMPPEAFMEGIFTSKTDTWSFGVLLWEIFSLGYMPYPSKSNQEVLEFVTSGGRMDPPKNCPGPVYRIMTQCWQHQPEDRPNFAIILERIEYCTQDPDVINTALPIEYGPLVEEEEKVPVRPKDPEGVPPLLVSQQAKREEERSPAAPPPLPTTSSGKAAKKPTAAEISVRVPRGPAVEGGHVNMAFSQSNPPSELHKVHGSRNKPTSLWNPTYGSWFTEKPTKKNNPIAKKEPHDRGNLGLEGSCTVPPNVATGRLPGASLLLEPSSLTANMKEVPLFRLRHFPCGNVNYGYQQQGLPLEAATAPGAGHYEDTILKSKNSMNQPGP

IGF1R = molecular target: T2, IGF1R (Homo sapiens, UniProt P08069); test: IGF1R kinase assay; details: Table 1; read-out: IGF1R IC50
T2 construct: 6×His- or GST-tagged kinase domain fragments of the corresponding RTKs expressed in baculovirus system; host or cells: baculovirus system
T2 sequence (P08069 999-1274 limits assumed): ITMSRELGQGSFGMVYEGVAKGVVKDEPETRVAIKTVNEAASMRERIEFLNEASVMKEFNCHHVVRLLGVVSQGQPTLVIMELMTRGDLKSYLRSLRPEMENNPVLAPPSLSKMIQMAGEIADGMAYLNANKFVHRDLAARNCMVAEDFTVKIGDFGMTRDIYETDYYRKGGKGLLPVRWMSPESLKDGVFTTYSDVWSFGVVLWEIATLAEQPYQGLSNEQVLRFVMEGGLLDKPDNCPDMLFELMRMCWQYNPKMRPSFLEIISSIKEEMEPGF
Protocol: as §1, §2

T1 sequence (P06213 1023-1298 limits assumed): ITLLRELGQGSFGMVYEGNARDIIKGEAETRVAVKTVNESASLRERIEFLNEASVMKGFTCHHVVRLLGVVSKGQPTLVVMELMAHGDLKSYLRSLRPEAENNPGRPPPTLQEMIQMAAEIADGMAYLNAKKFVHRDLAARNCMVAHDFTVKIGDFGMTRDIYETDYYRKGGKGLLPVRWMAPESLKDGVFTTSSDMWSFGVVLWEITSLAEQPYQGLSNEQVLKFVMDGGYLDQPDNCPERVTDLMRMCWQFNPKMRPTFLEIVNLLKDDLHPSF

Row | IC50 (IRK) [nM] | IC50 (ALK) [nM] | IC50 (IGF1R) [nM] | Compound
1 | 250 to 1000 | 10 to 100 | 100 to 250 | COc1ccc(F)cc1C[C@H](C)Nc1cc[nH]c(=O)c1-c1nc2cc3c(cc2[nH]1)CN(CCN1CCCC1)C3=O
2 | 100 to 250 | 10 to 100 | 100 to 250 | C[C@@H](Cc1sccc1Cl)Nc1cc[nH]c(=O)c1-c1nc2cc3c(cc2[nH]1)CN(CCN1CCCC1)C3=O
3 | 250 to 1000 | < 10 | > 1000 | C[C@@H]1CCCN1CCN1Cc2cc3[nH]c(-c4c(N[C@@H](C)Cc5cc(F)cc(F)c5F)cc[nH]c4=O)nc3cc2C1=O [drawing 340]
4 | 100 to 250 | 250 to 1000 | 250 to 1000 | C[C@@H](Cc1cccs1)Nc1cc[nH]c(=O)c1-c1nc2cc3c(cc2[nH]1)C(=O)N(CCN1CCCC1)C3
5 | 10 to 100 | 10 to 100 | 250 to 1000 | Cc1ccsc1C[C@H](C)Nc1cc[nH]c(=O)c1-c1nc2cc3c(cc2[nH]1)CN(CCN1CCCC1)C3=O
6 | 250 to 1000 | 10 to 100 | > 1000 | COc1cc(F)c(F)c(C[C@H](C)Nc2cc[nH]c(=O)c2-c2nc3cc4c(cc3[nH]2)CN(CCN2CCCC2)C4=O)c1OC
7 | 100 to 250 | < 10 | 250 to 1000 | C[C@@H](Cc1cc(F)ccc1Br)Nc1cc[nH]c(=O)c1-c1nc2cc3c(cc2[nH]1)CN(CCN1CCCC1)C3=O [drawing 330]
8 | > 1000 | 10 to 100 | 250 to 1000 | Cc1ccc(F)cc1C[C@H](C)Nc1cc[nH]c(=O)c1-c1nc2cc3c(cc2[nH]1)CNC3=O
9 | 100 to 250 | 100 to 250 | 250 to 1000 | C[C@@H](Cc1cccs1)Nc1cc[nH]c(=O)c1-c1nc2cc3c(cc2[nH]1)C(=O)N(CCCN1CCCC1)C3 [drawing 259]
10 | 250 to 1000 | 10 to 100 | > 1000 | Cc1ccc(F)cc1C[C@H](C)Nc1cc[nH]c(=O)c1-c1nc2cc3c(cc2[nH]1)CN(CCN1CCC[C@H]1C)C3=O [drawing 339]
11 | > 1000 | 100 to 250 | > 1000 | CN1CCC(N2C(=O)c3cc4nc(-c5c(N[C@@H](CO)Cc6ccccc6)cc[nH]c5=O)[nH]c4cc3C2=O)CC1
12 | > 1000 | 100 to 250 | 100 to 250 | Cc1ccc(F)cc1C[C@H](C)Nc1cc[nH]c(=O)c1-c1nc2cc3c(cc2[nH]1)CN(CCN1CCOCC1)C3=O
13 | 250 to 1000 | > 1000 | > 1000 | C[C@H](Cc1cccs1)Nc1cc[nH]c(=O)c1-c1nc2cc3c(cc2[nH]1)C(=O)N(CCCN1CCCC1)C3
14 | > 1000 | 10 to 100 | 250 to 1000 | C[C@@H](Cc1cc(F)cc(F)c1F)Nc1cc[nH]c(=O)c1-c1nc2cc3c(cc2[nH]1)CN(CCN1CCOCC1)C3=O
15 | – | 100 to 250 | 250 to 1000 | Cc1ccsc1C[C@H](C)Nc1cc[nH]c(=O)c1-c1nc2cc3c(cc2[nH]1)CN(CCN1CCS(=O)(=O)CC1)C3=O
16 | – | 100 to 250 | 250 to 1000 | C[C@@H](Cc1ccco1)Nc1cc[nH]c(=O)c1-c1nc2cc3c(cc2[nH]1)CN(CCN1CCCC1)C3=O
17 | – | 10 to 100 | > 1000 | C[C@H](CN(C)C)N1C(=O)c2cc3nc(-c4c(N[C@@H](C)Cc5sccc5Cl)cc[nH]c4=O)[nH]c3cc2C1=O
18 | – | 10 to 100 | 250 to 1000 | Cc1ccccc1C[C@H](C)Nc1cc[nH]c(=O)c1-c1nc2cc3c(cc2[nH]1)CN(CCN1CCCC1)C3=O
19 | – | 250 to 1000 | 250 to 1000 | COc1ccsc1C[C@H](C)Nc1cc[nH]c(=O)c1-c1nc2cc3c(cc2[nH]1)CN(CCCN1CCCC1)C3=O
20 | 250 to 1000 | 100 to 250 | > 1000 | COc1ccc(OC)c(C[C@H](C)Nc2cc[nH]c(=O)c2-c2nc3cc4c(cc3[nH]2)CN(CCN2CCCC2)C4=O)c1
21 | – | 250 to 1000 | 100 to 250 | C[C@H](Cc1cccs1)Nc1cc[nH]c(=O)c1-c1nc2cc3c(c(Cl)c2[nH]1)C(=O)N(C1CCN(C)CC1)C3
